Experimental data reported in patent US7141680B2, “Aromatic compounds possessing antifungal or antibacterial activity” (Genelabs Technologies, Inc., priority 2002, dated 2006).
Structures can show the parent of a compound that is named as a salt.

test system: bacteria; assay: Minimum inhibitory concentration (MIC) assay, bacteria; assay type: cell-based; details: not given
Protocol: (§1) The assays described below were used to measure the minimum inhibitory concentration (MIC) of a compound necessary to inhibit visible growth of the organism tested. These assays are adapted from NCCLS protocols M7-A4 and M27-A (NCCLS vol 17:9 and vol 17:2) as modified by Sandven, S., Clin. Micro. (1999) 37:12, p. 3856–3859. MIC values for Aspergillus species were determined using NCCLS protocol M38-P.
(§2) All compounds were dissolved in 100% DMSO to a stock concentration of 10 mM and used fresh stock compounds in powder form were kept frozen until needed and used freshly. When used for test purposes, compounds were diluted in the appropriate media depending on the organism being tested.
(§3) For yeast and aspergillus species, seven 1:2 serial dilutions of compound in appropriate media buffered with MOPS at pH 7.0 were prepared such that the final starting test compound concentrations were 44.4 μM for yeast and 50 μM aspergillus species. For bacteria, dilutions were made in growth media used for the particular bacteria being tested.
Five well-separated colonies from a 24 h Sabouraud Dextrose plate incubated at 35° C. were picked and resuspended into 2 mL of normal saline. The O.D.530 was read and the culture was adjusted to 0.5 McFarland units with normal saline. A 1:2000 dilution was made with RPMI 1640 media buffered with MOPS at pH 7.0 and 100 μL of this inoculum preparation was added to an equal volume of test compound-containing media. 25 μL of the redox indicator Alamar Blue (Biosource International) was added to each well and the plates were incubated for 48 h at 35° C. Wells having yeast growth changed color from blue to pink.
Inoculums are made in the same manner as yeast except all dilutions are made in normal saline, with a final dilution of 1:200 and an inoculum of 10 μL.

Row | Compound | MIC [µM]
1 | N=C(N)NCCNC(=O)c1cc2cc(NC(=O)c3ccc4[nH]c(C(=O)NCCNC(=N)N)cc4c3)ccc2[nH]1 [Compound 10, 1H-Indole-2,5-dicarboxylic acid 2-[(2-gutanidino-ethyl)-amide] 5-{[2-(2-guanidino-ethylcarbamoyl)-1H-indol-5-yl]-amide}] | ≤ 45.5
2 | N=C(N)NCC1CCC(CNC(=O)c2cc3cc(NC(=O)c4ccc5[nH]c(C(=O)NCC6CCC(CNC(=N)N)CC6)cc5c4)ccc3[nH]2)CC1 (stereo not drawn) [Compound 18, 1H-Indole-2,5-dicarboxylic acid 2-[(4-guanidinomethyl-cyclohexylmethyl)-amide] 5-({2-[(4-guanidinomethyl-cyclohexylmethyl)-carbamoyl}-1H-indol-5-yl}-amide)] | ≤ 45.5
3 | N=C(N)NCC(O)CNC(=O)c1cc2cc(NC(=O)c3ccc4[nH]c(C(=O)NCC(O)CNC(=N)N)cc4c3)ccc2[nH]1 (stereo not drawn) [Compound 19, 1H-Indole-2,5-dicarboxylic acid 2-[(3-guanidino-2-hydroxy-propyl)-amide] 5-{[2-(3-guanidino-2-hydroxy-propylcarbamoyl)-1H-indol-5-yl]-amide}] | ≤ 45.5
4 | CC(C)Cn1cc(NC(=O)c2ccc3[nH]c(C(=O)NCCNC(=N)N)cc3c2)cc1C(=O)NCCNC(=N)N [Compound 29, 1H-indole-2,5-dicarboxylic acid 2-[(2-guanidino-ethyl)-amide] 5-{[5-(2-guanidino-ethylcarbamoyl)-1-isobutyl-1H-pyrrol-3-yl]-amide}] | ≤ 45.5
5 | N=C(N)NCCC[C@H](N)C(=O)NCCCNC(=O)c1cc2ccc(NC(=O)c3cc4cc(C(=O)NCCNC(=O)[C@@H](N)CCCNC(=N)N)ccc4[nH]3)cc2[nH]1 [Compound 66, 1H-Indole-2,5-dicarboxylic acid 5-{[2-(2-amino-5-guanidino-pentanoylamino)-ethyl]-amide} 2-({2-[3-(2-amino-5-guanidino-pentanoylamino)-propylcarbamoyl]-1H-indol-6-yl}-amide)] | ≤ 45.5
6 | C/N=C(/NCCNC(=O)c1ccc2[nH]c(C(=O)Nc3ccc4[nH]c(C(=O)NCCN/C(=N/C)SC)cc4c3)cc2c1)SC [Compound 90, 1H-Indole-2,5-dicarboxylic acid 5-{[2-(2,3-dimethylisothioureido)ethyl]amide} 2-({2-[2-(2,3-dimethylisothioureido)ethylcarbamoyl]-1H-indol-5-yl}amide)dihydrochloride] | ≤ 45.5
7 | CC(C)(C)OC(=O)NCCNC(=O)c1cc2cc(NC(=O)c3cc4cc(N)ccc4[nH]3)ccc2[nH]1 [Compound 107, [2-({5-[(5-Amino-1H-indole-2-carbonyl)-amino]-1H-indole-2-carbonyl}-amino)-ethyl]-carbamic acid tert-butyl ester] | ≤ 45.5

test system: Aspergillus species; assay: Minimum inhibitory concentration (MIC) assay, filamentous fungi; assay type: cell-based; details: antifungal activity, lowest concentration at which 75% inhibition of growth is observed after 48 h
Protocol: as §1, §2, §3
Inoculums are made by incubating Aspergillus species for 7 days at 35° C. on potato dextrose agar slants. Slants are then covered with 1.0 mL of 0.85% saline, one drop of Tween 20 is added and colonies are teased with a sterile transfer loop to create a suspension which is allowed to sit for 5 min so heavier particles can drop out. The upper suspension is separated and adjusted to an optical density of 0.09 to 0.11. The resulting suspension is diluted 1:50, which yields 2× the final inoculum needed. Micro dilution trays are prepared as with yeast and incubated for 48 h at 35° C. For our purposes the MIC is defined as the lowest compound concentration at which 75% inhibition of growth is observed after 48 h.

Row | Compound | MIC [µM]
8 | CC(=N)NCCNC(=O)c1cc2cc(NC(=O)c3ccc4[nH]c(C(=O)NCCNC(C)=N)cc4c3)ccc2[nH]1 [Compound 9] | ≤ 50
9 | N=C(N)NCCNC(=O)c1cc2cc(NC(=O)c3ccc4[nH]c(C(=O)NCCNC(=N)N)cc4c3)ccc2[nH]1 [Compound 10, 1H-Indole-2,5-dicarboxylic acid 2-[(2-gutanidino-ethyl)-amide] 5-{[2-(2-guanidino-ethylcarbamoyl)-1H-indol-5-yl]-amide}] | ≤ 50
10 | N=C(N)NCC1CCC(CNC(=O)c2cc3cc(NC(=O)c4ccc5[nH]c(C(=O)NCC6CCC(CNC(=N)N)CC6)cc5c4)ccc3[nH]2)CC1 (stereo not drawn) [Compound 18, 1H-Indole-2,5-dicarboxylic acid 2-[(4-guanidinomethyl-cyclohexylmethyl)-amide] 5-({2-[(4-guanidinomethyl-cyclohexylmethyl)-carbamoyl}-1H-indol-5-yl}-amide)] | ≤ 50
11 | N=C(N)NCC(O)CNC(=O)c1cc2cc(NC(=O)c3ccc4[nH]c(C(=O)NCC(O)CNC(=N)N)cc4c3)ccc2[nH]1 (stereo not drawn) [Compound 19, 1H-Indole-2,5-dicarboxylic acid 2-[(3-guanidino-2-hydroxy-propyl)-amide] 5-{[2-(3-guanidino-2-hydroxy-propylcarbamoyl)-1H-indol-5-yl]-amide}] | ≤ 50
12 | N=C(N)NCCNC(=O)c1ccc(C(=O)Nc2ccc3[nH]c(C(=O)NCCNC(=N)N)cc3c2)cc1 [Compound 70, N-(2-Guanidino-ethyl)-N′-[2-(2-guanidino-ethylcarbamoyl)-1H-indol-5-yl]-terephthalamide] | ≤ 50
13 | N=C(N)NCCNC(=O)c1cc2cc(NC(=O)c3cc4cc(NC(=O)CNC(=N)N)ccc4o3)ccc2[nH]1 [Compound 135, 5-{[5-(2-guanidino-acetylamino)-benzofuran-2-carbonyl]-amino}-1H-indole-2-carboxylic acid (2-guanidino-ethyl)-amide] | ≤ 50
14 | N=C(N)NCCNC(=O)c1cc2cc(NC(=O)c3cc4cc(NC(=O)CNC(=N)N)ccc4[nH]3)ccc2[nH]1 [Compound 138, 5-{[5-(2-guanidino-acetylamino)-1H-indole-2-carbonyl]-amino}-1H-indole-2-carboxylic acid (2-guanidino-ethyl)-amide] | ≤ 50
15 | C[n+]1ccccc1NCCNC(=O)c1ccc2[nH]c(C(=O)Nc3ccc4cc(C(=O)NCCNc5cccc[n+]5C)[nH]c4c3)cc2c1 [Compound 170, 1H-Indole-2,5-dicarboxylic acid 5-[(2-(1-methylpyridiniu-2-yl)amino-ethyl)-amide] 2-{[2-(2-(1-methylpyridiniu-2-yl)amino-ethylcarbamoyl)-1H-indol-6-yl]-amide}] | ≤ 50
16 | N=C(N)NCCNC(=O)c1cc2ccc(NC(=O)c3cc4cc(C(=O)NCNC(=N)N)ccc4[nH]3)cc2[nH]1 [Compound 172, 1H-Indole-2,5-dicarboxylic acid 2-{[2-(2-guanidino-ethylcarbamoyl)-1H-indol-6-yl]-amide} 5-guanidinomethyl-amide] | ≤ 50
17 | N=C(N)NCNC(=O)c1ccc2[nH]c(C(=O)Nc3ccc4cc(C(=O)NCNC(=N)N)[nH]c4c3)cc2c1 [Compound 173, 1H-Indole-2,5-dicarboxylic acid 5-guanidinomethyl-amide 2-{[2-(guanidinomethyl-carbamoyl)-1H-indol-6-yl]-amide}] | ≤ 50
18 | N=C(N)NCCNC(=O)c1ccc2[nH]c(C(=O)Nc3ccc4[nH]c(C(=O)NCCNC(=N)N)nc4c3)cc2c1 [Compound 175, 1H-Indole-2,5-dicarboxylic acid 5-[(2-guanidino-ethyl)-amide] 2-{[2-(2-guanidino-ethylcarbamoyl)-1H-benzoimidazol-5-yl]-amide)] | ≤ 50
19 | CN(CCNC(=N)N)C(=O)c1ccc2[nH]c(C(=O)Nc3ccc4cc(C(=O)NCCNC(=N)N)[nH]c4c3)cc2c1 [Compound 176, 1H-Indole-2,5-dicarboxylic acid 2-{[2-(2-guanidino-ethylcarbamoyl)-1H-indol-6-yl]-amide} 5-[(2-guanidino-ethyl)-methyl-amide]] | ≤ 50
20 | N=C(N)NCCNC(=O)c1ccc2sc(C(=O)Nc3ccc4sc(C(=O)NCCNC(=N)N)cc4c3)cc2c1 [Compound 177, Benzo[b]thiophene-2,5-dicarboxylic acid 5-[(2-guanidino-ethyl)-amide]2-{[2-(2-guanidino-ethylcarbamoyl)-benzo[b]thiophen-5-yl]-amide}] | ≤ 50
21 | N=C(N)NCCNC(=O)c1ccc2[nH]c(C(=O)Nc3ccc4cc(C(=O)NCCNC(=N)N)sc4c3)cc2c1 [Compound 178, 1H-Indole-2,5-dicarboxylic acid 5-[(2-guanidino-ethyl)-amide] 2-{[2-(2-guanidino-ethylcarbamoyl)-benzo[b]thiophen-6-yl]-amide}] | ≤ 50
22 | CNCCNC(=O)c1cc2ccc(NC(=O)c3cc4cc(C(=O)NCCNC(=N)N)ccc4[nH]3)cc2[nH]1 [Compound 182, 1H-Indole-2,5-dicarboxylic acid 5-[(2-guanidinoethyl)amide] 2-{[2-(2-methylaminoethylcarbamoyl)-1H-indol-6-yl]amide}] | ≤ 50
23 | CN(C)CCNC(=O)c1cc2ccc(NC(=O)c3cc4cc(C(=O)NCCNC(=N)N)ccc4[nH]3)cc2[nH]1 [Compound 183, 1H-Indole-2,5-dicarboxylic acid 2-{[2-(2-dimethylaminoethylcarbamoyl)-1H-indol-6-yl]amide} 5-[(2-guanidinoethyl)amide]] | ≤ 50
24 | N#C/N=C(/N)NCCNC(=O)c1cc2ccc(NC(=O)c3cc4cc(C(=O)NCCNC(=N)N)ccc4[nH]3)cc2[nH]1 [Compound 184, 1H-Indole-2,5-dicarboxylic acid 5-{[2-(guanidino)ethyl]amide} 2-({2-[2-(N′-cyanoguanidino)ethylcarbamoyl]-1H-indol-6-yl}amide)] | ≤ 50
